Measurements: patent US20080300299A1, “Application of Eriocalyxin B in the Manufacture of Medicaments For Treating Leukemia” (Rui Jin Hospital Affiliated to Shanghai Second Medical …, priority 2005, published 2008)
Several values for one entry are separate records, joined by “and”; a condition that tells them apart may be missing. Identical values can stand only once.

Legend:
[1] = tested on: Kasumi-1 cells; test: ROS level flow cytometry; format: cell-based, human
Procedure: (§1) (IV) Flow cytometric for annexin-V, cell cycle, mitochondrial transmembrane potential and reactive oxygen species (ROS) generation: Cell apoptosis was analyzed using an ApoAlert Annexin V-FITC Apoptosis kit (BD). In the process of analyzing the cell cycle, the cells were fixed overnight in methanol at −20° C., followed by treatment of Tris-HCl buffer (pH 7.4) comprising 1% RNase, 50 μg/ml PI staining. In the detection of mitochondrial transmembrane potential, the cells were washed with PBS, incubated at 37° C. and with […] Rh123 for 30 minutes, and then staining with 50 μg/ml PI. DCFH-DA was used to detect ROS levels, thus the cells were washed with PBS, and incubated at 37° C. and with […] DCFH-DA for 30 minutes. Fluorescence intensity was measured by flow cytometry.

[2] = tested on: Kasumi-1 cells; test: Mitochondrial transmembrane potential (Rh123 flow cytometry); format: cell-based, human
Procedure: as §1

[3] = tested on: Kasumi-1 cells; test: Cell survival (trypan blue dye-exclusion); format: cell-based, human; details: 48 hours
Text: (§2) (II) Cell culture, cell survival and cell morphology: the present invention utilized the following human cell lines: AML leukemia with t(8;21) chromosomal translocation Kasumi-1 cell lines, which is also known as acute myeloid leukemia comprising AML1-ETO fusion gene; acute promyelocytic leukemia NB4, NB4/R1 and NB4/R2 cell lines, and acute myeloid leukemia U937 cell lines; Burkitt's lymphoma (Raji and Daudi) cell lines; T-cell acute lymphoblastic leukemia (Jurkat) cell lines. The present invention studied by collecting primary leukemia cells from five AML patients with t(8;21). The diagnoses of patients were established on the bases of morphological examination, cytogenetics study detection of t(8;21) chromosomal translocation, and RT-PCR detection of AML1-ETO fusion protein. Leukemia cells were prepared in the following conditions: separated with Lymphocyte Separation Medium, further isolated and cultured in RPMI-1640 medium (Gibco/BRL), in addition, added 10% FBS (PAA) in 5% CO2-95% air and saturated humidity, and at 37° C. In each experiment, cell inoculation density is 2×10^5/ml. The survival rate of cells was accessed using trypan blue dye-exclusion experiments. Cell observations were done by using the Wright's staining method.

[4] = tested on: NF-κB (P65); test: Immunofluorescence of P65 nuclear translocation in Kasumi-1 cells; format: cell-based, human; details: pretreatment with EriB for one hour, 100 ng/ml TNF-α four hours
Procedure: (VI) Immunofluorescence: the cells were fixed in methanol for five minutes at −20° C., after being washed with PBS, treated by 0.5% Triton-X-permeability, blocked with 1% BSA, and incubated with anti-P65 antibody at room temperature for one hour; after being washed again with PBS and incubated with the fluorescent-label IgG at room temperature for 30 minutes. The cells were incubated with Hochest 33258 for five minutes later, and observations were proceeded under the fluorescent microscope.

[5] = tested on: caspase-3; test: Western blot of caspase-3 activation and PARP; format: cell-based, human; details: EriB; Kasumi-1, NB4 and NB4/R2 cells
[6] = tested on: Kasumi-1 cells; test: Kasumi-1 xenograft tumor model in nude mice; format: in vivo; details: EriB 2.5 mg/kg intraperitoneal, day 10 to day 19; P<0.05
Procedure: Another xenograft tumor model was established through subcutaneous injection in nude mice of 3×10^7 Kasumi-1 cells (day 0). The incubation period of tumor formation at the site of injection was about 8-12 days. Beginning from day 10, the mice were treated with EriB (2.5 mg/kg) by intraperitoneal injection only until day 19.

[7] = tested on: Bcl-XL; test: Western blot and RT-PCR of Bcl-XL in Kasumi-1 cells; format: cell-based, human; details: EriB 24 and 48 hours
Procedure: (§3) (VII) Western Blot analysis: lysing 5×10^6 cells with 200 μl Laemmli lysis buffer (0.5M Tris-HCl, pH 6.8, 2 mM EDTA, 10% glycerol, 2% SDS and 5% β-mercaptoethanol). Protein lysate (20 μg) was used on 10% polyacrylamide gel electrophoresis, and then transferred to nitrocellulose membranes. Nitrocellulose membranes were blocked with TBS/0.05% Tween 20 5% skim (nonfat) milk, and afterwards, incubated with primary antibody for two hours at room temperature, and incubated with horseradish peroxidase labeled IgG for one hour. The Immunocomplexes were detected with chemiluminescence horseradish peroxidase detection kit. The signal intensities of the respective bands were analyzed with Quantity One version 4.1.1 software.
(§4) (IX) Semi-quantitative reverse transcription-PCR (RT-PCR): the total RNA was extracted using Trizol (Invitrogen). Random hexamers and Superscript II (Invitrogen) ART were used for reverse transcribed into cDNA. The present invention utilized the following primers: […]

[8] = tested on: Kasumi-1 cells; test: Annexin V-FITC/PI apoptosis flow cytometry; format: cell-based, human; details: 0.5 μM EriB
Procedure: as §1

[9] = tested on: Kasumi-1 cells; test: Cell cycle analysis (nuclear DNA content, PI); format: cell-based, human; details: 0.25 μM EriB for 6, 12, 24 and 48 hours
Procedure: as §1

[10] = tested on: ERK1/2; test: Western blot of phosphorylated ERK1/2 in Kasumi-1 cells; format: cell-based, human; details: EriB 12 and 24 hours
Procedure: as §3

[11] = tested on: Bax; test: Western blot and RT-PCR of Bax in Kasumi-1 cells; format: cell-based, human; details: EriB 24 and 48 hours
Procedure: as §3, §4

[12] = tested on: AP-1; test: AP-1 luciferase report assay in Kasumi-1 cells; format: cell-based, human; details: 0.5 μM EriB for 4 hours
Procedure: (§5) (X) Luciferase report assay: Kasumi-1 cells were resuspended in cultured medium, added the gene vector [10 μg, NF-κB-mediated luciferase reporter plasmid or pAP1-luc (Clontech), and 2 μg of β-galactosidase enzyme expression plasmid for correcting cell transfection efficiency of the CMV-mediated. Cell transfection conditions were: 1000V, 25 μF, and the instrument came from the Bio-Rad Laboratories, Inc. Transfections after 36 hours, the cells were treated with EriB and/or TNFα, and then the cells were lysed. Luciferase activity was measured by lumat LB 9507 tube luminometer (EG&G Berthold). Cell lysates were mixed with 2×β-half-galactosidase reaction reagents, after incubated for one hour at 37° C., the termination of reaction by adding 1 M Na2CO3. The β-galactosidase enzyme absorbance values were measured at 420 nm by spectrophotometer.

[13] = tested on: NB4/R1 cells; test: MTT cell growth inhibition; format: cell-based, human; details: 72 hours
Text: as §2
(§6) (III) MTT experiment: cells were treated with EriB at concentrations of 0.1, 0.25, 0.5, 1, 2, 4, 6, 8 and 10 μM in a 96-hole plate. After 72 hours, 0.1 mg MTT was added to each hole, incubated at 37° C. for four hours later, absorbance values were measured at 570 nm by spectrophotometer.

[14] = tested on: Daudi cells; test: MTT cell growth inhibition; format: cell-based, human; details: 72 hours
Text: as §2, §6

[15] = tested on: U937 cells; test: MTT cell growth inhibition; format: cell-based, human; details: 72 hours
Text: as §2, §6

[16] = tested on: NB4/R2 cells; test: MTT cell growth inhibition; format: cell-based, human; details: 72 hours
Text: as §2, §6

[17] = tested on: Raji cells; test: MTT cell growth inhibition; format: cell-based, human; details: 72 hours
Text: as §2, §6

[18] = tested on: Jurkat cells; test: MTT cell growth inhibition; format: cell-based, human; details: 72 hours
Text: as §2, §6

[19] = tested on: NB4 cells; test: MTT cell growth inhibition; format: cell-based, human; details: 72 hours
Text: as §2, §6

[20] = tested on: human malignant hematopoietic cell; test: MTT cell growth inhibition, whole panel; format: cell-based; details: all cell lines tested
Text: as §2, with “The survival rate of cells was accessed using trypan blue dye-exclusion experiments. Cell observations were done by using the Wright's staining method.” left out
as §6

[21] = tested on: Kasumi-1 cells; test: Differentiation associated antigen expression; format: cell-based, human; details: 0.1 and 0.25 μM EriB for seven days
[22] = tested on: MigA/Etr cells expressing C-terminal truncated AML1-ETO; test: C57 murine model of t(8;21) leukemia; format: in vivo, mice; details: for median survival time: control 25 days, P<0.001
Procedure: (XII) Leukemia murine model: female C57 mice and nude mice (5-6 weeks) were bred in special pathogen-free environment. C57 mice received 400 cGy from a high-energy linear accelerator at the dose rate of 100 cGy per minute. After 24 hours, the C57 mice were injected with 3×10^6 Mig/Etr cells expressing carbon-terminal truncated AML1-ETO of 0.2 ml PBS via tail vein intravenous injection. Treatments (12 mice in each group) were started five days after injection of leukemia cells. The control group and the EriB treated group, all respectively receive EriB (1.25, or 2.5 mg/kg, intraperitoneal injection for two weeks) and diluents (1% Pluronic F68).
EriB efficacy in the treatment of murine models. C57 mice were irradiated by lethal dose (LD)50 and injected via tail vein intravenously with 3×10^6 MigA/Etr cells expressing of C-terminal truncated AML1-ETO (day 0). Beginning on day 5, intraperitoneal injection of EriB ([…]) for two weeks. The overall survival rate was measured and calculated started from day 0 to the date of death. All the mice eventually develop symptoms of anemia and difficulty breathing, and also the occurrence of a large number of primitive blood cells in the peripheral blood.

[23] = tested on: AML1-ETO fusion protein; test: Western blot of AML1-ETO (anti-ETO antibody) in Kasumi-1 cells; format: cell-based, human; details: EriB 24 and 48 hours
Procedure: as §3

[24] = tested on: NF-κB; test: Gel electrophoresis shift assay (EMSA) of NF-κB DNA binding; format: cell-based, human; details: EriB added one hour before TNF-α
Procedure: (XI) Gel electrophoresis shift assay: nucleoprotein extracts of Kasumi-1 cells were quantitatively determined by using Coomassie plus reagent (Pierce). Nucleoprotein (10 μg) and ^32P marked double-stranded NF-κB (5′-[…]-3′) were sequentially incubated, and then […] using 4% of non-denaturing PAGE gel; the marked bands were detected by using autoradiography.

[25] = tested on: HL60 cells; test: MTT cell growth inhibition; format: cell-based, human; details: 72 hours
Procedure: as §6

[26] = tested on: NF-κB; test: NF-κB luciferase report assay in Kasumi-1 cells; format: cell-based, human; details: pre-treatment with EriB for one hour, then TNF-α four hours
Procedure: as §5

[27] = tested on: primary leukemia cells from patients with t(8;21); test: Growth inhibition of primary leukemia cells (trypan blue exclusion); format: cell-based, human; details: 0.1 and 0.25 μM EriB, all five patients
Text: as §2

[28] = tested on: Bcl-2; test: Western blot and RT-PCR of Bcl-2 in Kasumi-1 cells; format: cell-based, human; details: EriB 24 and 48 hours
Procedure: as §3, §4

## O[C@H](CS)[C@H](O)CS (racemic) [DTT, dithiothreitol, reference compound]
[1]; 0.2 mM DTT and EriB jointly incubated
  ROS level: has not changed
[2]; 0.2 mM DTT with 0.5 μM EriB
  effect on EriB-induced apoptosis (Rh123): completely inhibit

## C=C1C(=O)[C@]23C[C@H]1CC[C@H]2[C@@]12CO[C@]3(O)[C@@H](O)[C@@H]1C(C)(C)C=CC2=O [EriB, Eriocalyxin B]
[1]; 0.5 μM EriB alone for 2 hours
  cell level of ROS compared with untreated cells: about two
[3]; 0.25 μM EriB
  cell death: 42.7±6.5%
[3]; 0.75 μM EriB
  cell death: 90.5±4.3%
[4]
  TNF-α-induced P65 translocation into nucleus: significantly prevent
[5]
  caspase-3 activation: activated
[6]
  tumor size versus control group: significantly reduce tumor size
[7]
  Bcl-XL protein and mRNA levels: have decreased
[8]; 48 hours
  annexin V-positive cells proportion: 88.6%
[9]
  proportion of sub-G1 cells: higher proportion of sub-G1
[10]
  ERK1/2 phosphorylation level: rapidly decreased
[11]
  Bax expression: have not changed significantly
[12]
  AP-1 luciferase activity increase: about three
[13]
  IC50: < 1 µM and 1 µM
[14]
  IC50: > 1.5 µM
[15]
  IC50: 1 µM
[16]
  IC50: < 1 µM and 0.5 µM
[17]
  IC50: > 1.5 µM
[18]
  IC50: > 1.5 µM
[19]
  IC50: < 1 µM and 0.5 µM
[20]
  concentration that inhibits the growth of the cells: 0.2 to 2 µM
[21]
  induction of differentiation (CD11b, CD13, CD14, CD33, CD34, CD64): did not induce differentiation
[22]; EriB 1.25 mg/kg intraperitoneal for two weeks
  median survival time: 28 days
[22]; EriB 2.5 mg/kg intraperitoneal for two weeks
  median survival time: 32 days
[22]; EriB intraperitoneal, 20 days
  spleen size versus untreated mice: obviously smaller
[23]
  AML1-ETO fusion protein level: AML1-ETO degradation
[24]
  NF-κB activation (DNA binding, EMSA): can block NF-κB activation
[25]
  IC50: 1 µM
[26]
  base luciferase activity and TNF-α-induced NF-κB activity: have been blocked
[2]; EriB 24 and 48 hours, time and dose dependent
  mitochondrial transmembrane potential: decreased significantly
[27]
  cell inhibition: more than 60%
[28]
  Bcl-2 protein and mRNA levels: have decreased

## COC(=O)CC[C@H](NC(=O)[C@H](CC(=O)OC)NC(=O)OCc1ccccc1)C(=O)N[C@H](C(=O)N[C@@H](CC(=O)OC)C(=O)CF)C(C)C [Z-DEVD-fmk, reference compound]
[8]; 40 μM Z-DEVD-fmk pre-treatment one hour
  effect on rate of EriB-induced apoptosis (annexin V positive cell proportion): only partially reduced
